From DBAASP
In brackets after ≈: the same amount, converted by molar mass. One block for each compound: values may come before it.

Legend:
Experiment in all cases: ≥ marks a high value that may be exact or a test limit, other limits are often not marked, values filed in µg/mL are converted to µM
[1] = test system: Staphylococcus aureus IFO 12732
[2] = test system: Bacillus subtilis IFO 3134
[3] = test system: Escherichia coli IFO 12734
[4] = test system: Pseudomonas aeruginosa IFO 12582
[5] = test system: Staphylococcus aureus S908
[6] = test system: Candida albicans ATCC 90028
[7] = test system: Staphylococcus epidermidis T37/8
[8] = test system: Xanthomonas fragariae Xf349-9A
[9] = test system: Staphylococcus aureus 145/08
[10] = test system: Xanthomonas arboricola pv. pruni CFBP 5563
[11] = test system: Stenotrophomonas maltophilia B5/5
[12] = test system: Pseudomonas syringae pv. syringae EPS 94
[13] = test system: Acinetobacter baumannii NM8
[14] = test system: Acinetobacter baumannii NM124
[15] = test system: Staphylococcus aureus 274/08
[16] = test system: Klebsiella pneumoniae ATCC 700603
[17] = test system: Pseudomonas aeruginosa ATCC 27853
[18] = test system: Staphylococcus aureus V4180
[19] = test system: Acinetobacter baumannii NM75
[20] = test system: Staphylococcus epidermidis T6/19
[21] = test system: Xanthomonas campestris pv. Vesicatoria 2133-2
[22] = test system: Erwinia amylovora PMV 6076
[23] = test system: Stenotrophomonas maltophilia B32/4
[24] = test system: Staphylococcus epidermidis RP62A/1
[25] = test system: Escherichia coli ATCC 25726
[26] = test system: Stenotrophomonas maltophilia B6/2
[27] = test system: Stenotrophomonas maltophilia B32/1
[28] = test system: Pseudomonas syringae pv. actinidiae Psa3700.1.1
[29] = test system: Acinetobacter baumannii NM35
[30] = test system: Staphylococcus epidermidis RP62A
[31] = test system: Stenotrophomonas maltophilia U8908
[32] = test system: Enterococcus faecalis ATCC 29212
[33] = test system: Staphylococcus aureus ATCC 25923
[34] = test system: Staphylococcus aureus T4/6
[35] = test system: Acinetobacter baumannii NM109
[36] = test system: Staphylococcus aureus 127/08
[37] = test system: Pseudomonas aeruginosa U-31
[38] = test system: Bacillus subtilis PCI 219
[39] = test system: Escherichia coli NIHJ JC-2
[40] = test system: Staphylococcus aureus FDA 209P
[41] = test system: Pseudomonas aeruginosa ATCC 9027
[42] = test system: Micrococcus luteus ATCC 9341
[43] = test system: Candida albicans ATCC 36232
[44] = test system: Proteus vulgaris ATCC 6380
Staphylococcus aureus = test system: Staphylococcus aureus
[45] = test system: Staphylococcus aureus ATCC 6538
[46] = test system: Escherichia coli ATCC 2592
[47] = test system: Staphylococcus aureus A170
[48] = test system: Staphylococcus epidermidis
Escherichia coli W160-37 = test system: Escherichia coli W160-37

MIC [1]: ≥ 64 µM
MIC [2]: ≥ 64 µM
MIC [3]: ≥ 64 µM
MIC [4]: ≥ 64 µM
SMILES: CC[C@H](C)[C@H](NC(=O)[C@H](C)NC(=O)[C@@H]1CCCN1C(=O)[C@@H](NC(=O)[C@@H](NC(=O)[C@H](Cc1cnc[nH]1)NC(=O)[C@H](C)NC(=O)[C@H](C)NC(=O)[C@@H](NC(=O)[C@H](CCCCN)NC(=O)[C@H](C)NC(=O)[C@H](CC(C)C)NC(=O)[C@@H](NC(=O)CNC(=O)[C@H](Cc1ccccc1)NC(=O)[C@H](C)N)C(C)C)C(C)C)C(C)C)C(C)C)C(=O)N[C@@H](C)C(=O)N[C@@H](CCC(=O)O)C(=O)N[C@@H](Cc1cnc[nH]1)C(=O)N[C@@H](Cc1ccccc1)C(N)=O [AFGVLAKVAAHVVPAIAEHF]

MIC [5]: 16 µM (≈ 24.8 µg/mL)
MIC [6]: ≥ 62.5 µM
MIC [7]: 16 µM (≈ 24.8 µg/mL)
MIC [8]: ≥ 35.4 µM
MIC [9]: 16 µM (≈ 24.8 µg/mL)
MIC [10]: 8.8 µM (≈ 13.6 µg/mL)
MIC [11]: ≥ 62.5 µM
MIC [12]: ≥ 50 µM
MIC [13]: ≥ 125 µM
MIC [14]: ≥ 125 µM
MIC [15]: 16 µM (≈ 24.8 µg/mL)
MIC [16]: 250 µM (≈ 387 µg/mL)
MIC [17]: 250 µM (≈ 387 µg/mL)
MIC [18]: 16 µM (≈ 24.8 µg/mL)
MIC [19]: ≥ 62.5 µM
MIC [20]: 8 µM (≈ 12.4 µg/mL)
MIC [21]: 8.8 µM (≈ 13.6 µg/mL)
MIC [22]: ≥ 35.4 µM
MIC [23]: ≥ 62.5 µM
MIC [24]: 8 µM (≈ 12.4 µg/mL)
MIC [25]: ≥ 125 µM
MIC [26]: 31.3 µM (≈ 48.4 µg/mL)
MIC [27]: ≥ 62.5 µM
MIC [28]: ≥ 50 µM
MIC [29]: ≥ 125 µM
MIC [30]: 16 µM (≈ 24.8 µg/mL)
MIC [31]: ≥ 62.5 µM
MIC [32]: 62.5 µM (≈ 96.7 µg/mL)
MIC [33]: 16 µM (≈ 24.8 µg/mL)
MIC [34]: 16 µM (≈ 24.8 µg/mL)
MIC [35]: ≥ 125 µM
MIC [36]: 8 µM (≈ 12.4 µg/mL)
SMILES: CC[C@H](C)[C@H](NC(=O)[C@H](C)NC(=O)[C@H](CCCCN)NC(=O)CNC(=O)[C@@H](NC(=O)[C@H](Cc1cnc[nH]1)NC(=O)CNC(=O)[C@H](CC(C)C)NC(=O)[C@H](CC(C)C)NC(=O)[C@@H](NC(=O)CNC(=O)[C@@H](NC(=O)[C@H](CC(C)C)NC(=O)CN)C(C)C)[C@@H](C)O)[C@@H](C)CC)C(=O)N[C@@H](CC(C)C)C(=O)N[C@@H](CO)C(N)=O [GLVGTLLGHIGKAILS]

MIC [37]: ≥ 44.2 µM
MIC [38]: ≥ 44.2 µM
MIC [39]: ≥ 44.2 µM
MIC [40]: ≥ 44.2 µM
SMILES: CC(C)C[C@H](NC(=O)[C@H](CCCCN)NC(=O)[C@H](CCCCN)NC(=O)[C@H](CC(C)C)NC(=O)[C@H](CC(C)C)NC(=O)[C@H](CCCCN)NC(=O)[C@H](CCCCN)NC(=O)[C@H](Cc1c[nH]c2ccccc12)NC(=O)[C@H](CC(C)C)NC(=O)[C@H](CCCCN)NC(=O)[C@H](CC(C)C)NC(=O)[C@H](CC(C)C)NC(=O)[C@H](CCCCN)NC(=O)[C@H](CCCCN)NC(=O)[C@H](CC(C)C)NC(=O)[C@H](CC(C)C)NC(=O)[C@@H](N)CCCCN)C(=O)N[C@@H](CCCCN)C(=O)O [KLLKKLLKLWKKLLKKLK]

MIC [41]: 5.39 µM (≈ 12.5 µg/mL)
MIC [42]: 2.69 µM (≈ 6.25 µg/mL)
MIC [43]: 2.69 µM (≈ 6.25 µg/mL)
MIC [44]: ≥ 43.1 µM
MIC (Staphylococcus aureus): 10.8 µM (≈ 25 µg/mL)
MIC [45]: 5.39 µM (≈ 12.5 µg/mL)
MIC [46]: 5.39 µM (≈ 12.5 µg/mL)
SMILES: CC[C@H](C)[C@H](NC(=O)[C@H](CCCCN)NC(=O)[C@@H]1CCCN1C(=O)[C@H](CC(C)C)NC(=O)[C@H](Cc1ccccc1)NC(=O)[C@H](CC(N)=O)NC(=O)[C@H](C)NC(=O)[C@H](C)NC(=O)[C@H](CC(C)C)NC(=O)CNC(=O)[C@H](C)NC(=O)[C@H](CC(C)C)NC(=O)[C@@H](N)CC(C)C)C(=O)N[C@@H](Cc1ccccc1)C(=O)N[C@@H](CS)C(=O)N[C@@H](CCCCN)C(=O)N[C@H](C(=O)N[C@H](C(=O)N[C@@H](CCCN=C(N)N)C(=O)N[C@@H](CCCCN)C(=O)N[C@@H](CS)C(N)=O)[C@@H](C)O)[C@@H](C)CC [LLAGLAANFLPKIFCKITRKC]

MIC [47]: 6.97 µM (≈ 10 µg/mL)
MIC [48]: 13.9 µM (≈ 20 µg/mL)
SMILES: CC[C@H](C)[C@H](NC(=O)[C@@H]1CCCN1C(=O)[C@H](CC(C)C)NC(=O)[C@@H](N)CC(C)C)C(=O)N[C@H](C(=O)N[C@H](C(=O)N[C@@H](CC(N)=O)C(=O)N[C@@H](CC(C)C)C(=O)N[C@@H](CC(C)C)C(=O)N[C@@H](CCCCN)C(=O)N[C@@H](CO)C(=O)N[C@@H](CC(C)C)C(=O)N[C@@H](CC(C)C)C(=O)O)C(C)C)C(C)C [LLPIVVNLLKSLL]

MIC (Staphylococcus aureus): 107 µM (≈ 152 µg/mL)
MIC (Escherichia coli W160-37): ≥ 107 µM
SMILES: CC[C@H](C)[C@H](NC(=O)[C@H](Cc1c[nH]c2ccccc12)NC(=O)[C@H](CCCCN)NC(=O)[C@H](CO)NC(=O)[C@H](CC(C)C)NC(=O)[C@H](Cc1ccccc1)NC(=O)[C@@H](NC(=O)[C@H](CCCCN)NC(=O)[C@H](CC(C)C)NC(=O)[C@H](CCCCN)NC(=O)[C@@H]1CCCN1)[C@@H](C)O)C(=O)NCC(=O)O [PKLKTFLSKWIG]
